This passage reports melting point results from a melting point compilation (Tetko et al.; mined from patent text by program, amines drawn as free bases though some values may be those of a salt).

The structures appear in SMILES notation.

`CCOC(=O)c1cc(-c2ccc(OCc3cccnc3)cc2O[C@H](CCC(=O)O)c2ccccc2C)n[nH]1`: the melting point (usually the temperature, or range, at which the solid turns liquid) was in the range of 108 to 110 °C.

In turn, `CS(=O)(=O)Nc1ccc2[nH]ccc2c1` showed a melting point of 133 to 135 °C.

With `O=C(Nc1cccc2c(Cn3ccnc3)ccnc12)c1c(Cl)cccc1Cl`, the melting point was > 250 °C.

For the molecule `O=C1NC(=O)C(c2cn3c4c(cccc24)CCC3)=C1c1ccc(OCc2ccccc2)cc1`, the melting point was in the range of 262 to 265 °C.

The molecule `COC(=O)C(C)c1ccc(-c2ccccc2[N+](=O)[O-])cc1` (stereo unspecified) yielded a melting point of 83 to 86 °C.

Molecule `Cc1cc(Cl)ccc1-n1cnnc1C(F)(F)F` had a melting point of 90 °C.

On to `Cc1cc(C)c(C2C(=O)CC(c3ccccc3)CC2=O)c(C)c1` (stereo unspecified), for which the melting point was in the range of 215 to 216 °C.

On to `CCOC1CC2(C)C(CCC3C4CCC(C(C)=O)C4(C)CC(NC(=O)OCC(Cl)(Cl)Cl)C32)CC1OC(=O)OCC(Cl)(Cl)Cl` (stereo unspecified), for which the melting point lay within 147 to 149 °C.

Take `CCN(C)C(=N)N[N+](=O)[O-]`: the melting point was 124 to 125 °C.

For `N=c1[nH]c2ccc(Cl)cc2c2ncnn12`, the melting point lay within 279 to 280 °C.

As to `C=C(c1cn(-c2c(Cl)cc(C(F)(F)F)cc2Cl)nc1C#N)C(F)(F)Cl`, the melting point was in the range of 113 to 114 °C.

For `Cc1cc2nc(C(C)(C)C(=O)O)cn2nc1OCCCN1CCC(OC(c2ccccc2)c2ccccc2)CC1`, the melting point is 122 °C.

Molecule `CCOC(C)=C(C#N)C(=O)c1ccc(F)cc1` displayed a melting point of 77 °C.

Consider `COc1cccc(C2C=C(C)NC3=C2C(=O)CCC3)c1` (stereo unspecified), for which the melting point fell in the range of 164 to 167 °C.

`CCCCC1Cc2c(c3cccnc3n(-c3ccccc3)c2=O)O1` (stereo unspecified) had a melting point of 179 to 180 °C.

Molecule `C#Cc1ccc2c(c1)C(CCOCCOCCOC)(CCOCCOCCOC)c1cc(C#C)ccc1-2` returned a melting point of 68 °C.

`CCCCOC(=O)c1cnc(C(=O)O)c(OC)c1` registered a melting point of 96 to 98 °C.

`CC1(C)COc2ccc(Cl)cc2C(O)(c2ccccn2)C1` (stereo unspecified): the melting point came to 118 °C.

`O=c1c2c(c1=O)NCCCN2` came in with a melting point of 335 °C.

Consider `CC(C)OCCNS(=O)(=O)NC(=O)OCCCc1ccc(OCc2ccco2)cc1Oc1ncc(C(F)(F)F)cc1Cl`, for which the melting point was in the range of 118 to 120 °C.

On to `Cc1cc(-c2c3ccccc3c(Br)c3sc(C)c(C)c23)cc(C)c1OS(=O)(=O)c1ccc(C(=O)O)c(O)c1`, for which the melting point is > 225 °C.

In turn, `CCOC(=O)COC(=O)c1cc(S(N)(=O)=O)c(Cl)cc1NCc1ccco1` had a melting point of 46 °C.

For `CCOc1nc2c(N)nc3cccnc3c2n1[C@@H](C)c1ccccc1`, the melting point is 187 to 190 °C.

As for `Nc1ccc(C(O)(C(F)(F)F)C(F)(F)F)cc1S`, the melting point is 121 to 123 °C.

For `CN(C=O)C1CCC(=O)c2ccccc21` (single isomer, unassigned; (+)), the melting point was in the range of 92 to 93 °C.

In turn, `COc1c(O)cc2c(c1Sc1ccccc1)CCN(C)CC2` came in with a melting point of 161 to 162 °C.

`CCOC(=O)c1nn(-c2ccc(C=O)cc2)nc1C` displayed a melting point of 97 to 99 °C.

In the case of `COc1ccc2c(c1OC)CCC2=O`, the melting point lay within 73 to 74 °C.

On to `CNC(=NC#N)NCCCCc1nccc(NC(N)=NCCOC)n1`, for which the melting point was 162 to 165 °C.

Molecule `OC(c1ccc(F)cc1)(c1ccc(F)cc1)C1CCN(CCCOc2ccc(Cl)cc2)CC1` displayed a melting point of 92 to 93 °C.

`CCOC(=O)CNC(=O)CCN(C(=O)c1ccc(Cl)cc1)c1ccc(OC)cc1` displayed a melting point of 87 to 89 °C.

In turn, `CC1(C(=O)Cc2ccc(Cl)cc2[N+](=O)[O-])CC=CS1` (stereo unspecified) yielded a melting point of 142 to 143 °C.

Regarding `CCCN(CCC)Cc1csc(-c2ncn3c2CN(C)C(=O)c2c-3ccc(F)c2Cl)n1`, the melting point is 123 °C.

As to `O=C(CN1CCN(c2nccs2)CC1)N1CCC(O)(c2cccc(C(F)(F)F)c2)CC1`, the melting point is 157 to 158 °C.

For `C[C@H](NC(=O)c1cccnc1Oc1ccc(F)cc1)c1cccs1`, the melting point fell in the range of 59 to 61 °C.

For the molecule `Fc1ccc2c(c1F)OCCN2`, the melting point was in the range of 48 to 54 °C.

`C[C@@H]1C(=O)N(CO)Cc2ccccc2[C@@H]1C` (relative stereo) gave a melting point of 91 to 92 °C.

On to `COc1ccc(-c2nc(-c3ccc(OC)cc3)nc(-c3ccccc3O)n2)cc1`, for which the melting point is 205 to 206 °C.

Consider `Cc1ccc(-n2nc(C(C)(C)C)cc2NC(=O)Nc2ccc(OCCN3CCS(=O)CC3)c3ccccc23)cc1`, for which the melting point was in the range of 205 to 207 °C.

`ClCCCOc1ccccc1Cc1cccc2[nH]ccc12` gave a melting point of 75 °C.

Take `O=c1nc(-c2cccc(Cl)c2)c2cc(Br)ccc2[nH]1`: the melting point worked out at 281 °C.

Turning to `N#Cc1ccc(CN2CCNC2=O)cc1`, the melting point is 127 to 133 °C.

The molecule `CCOC(=O)CCCC(=O)CNC(=O)c1csc(NC(=O)NCc2ccccc2)n1` gave a melting point of 135 to 136 °C.

As to `CCOc1ccc(S(=O)(=O)n2nc(O)cc2N)cc1-c1nc2cccnc2c(=O)[nH]1`, the melting point is 246 to 249 °C.

Molecule `CS(=O)(=O)c1ccc(-c2c(-c3ccc(F)cc3)c(OCc3ccccc3)nn2Cc2ccccc2)cc1` yielded a melting point of 174 to 175 °C.

Take `COC1=C(C)C(=O)OC1O` (stereo unspecified): the melting point was determined as 79 °C.

For the molecule `Cc1c(-c2ccc([N+](=O)[O-])cc2)sc2c1c(=O)n(-c1ccccc1)c(=O)n2Cc1c(F)cccc1F`, the melting point lay in the range of 280 to 282 °C.

For `Cc1nc(N)c(C#N)c(NCc2cncc(Br)c2)n1`, the melting point fell in the range of 283 to 284 °C.

Molecule `COc1cc(Cc2cnc(N)nc2N)ccc1N` returned a melting point of 210 to 212 °C.

In turn, `Cn1c(OC(F)F)n[nH]c1=O` yielded a melting point of 111 °C.

Molecule `C=C(C)C(=O)OC1CC(=O)NC1=O` (stereo unspecified) had a melting point of 102 °C.

`O=c1[nH]c2cc(C(F)(F)F)c(C(F)(F)F)cc2[nH]c1=O`: the melting point is > 250 °C.

On to `CCc1ccc(C(=NO)c2ccc(F)cc2)c(O)c1`, for which the melting point lay in the range of 130 to 132 °C.

`CN(C)CCC=Cc1ccc2c(c1)CCCN2C(=O)c1ccc(-c2ccc(Cl)cc2)cc1` had a melting point of 142 to 144 °C.

Consider `COc1cc(OC)c2c(=O)cc(-c3ccc(C#N)cc3)oc2c1C1CCN(C)C1CO` (stereo unspecified), for which the melting point lay within 214 to 216 °C.

On to `COCCOc1ccc(/C=C/C(=O)NS(=O)(=O)CC(F)(F)F)c(Oc2ncc(C(F)(F)F)cc2Cl)c1`, for which the melting point was in the range of 146 to 148 °C.

`N#Cc1nc(N2CCNCC2)nc(N2CCS(=O)CC2)c1Cl`: the melting point was 206 to 208 °C.

Molecule `Cc1noc(NS(=O)(=O)c2c(C)sc3ccccc23)c1C` returned a melting point of 174 to 176 °C.

`COc1ccc(Cc2nc(-c3ccc(F)cc3)c(-c3ccc(S(C)(=O)=O)cc3)o2)cc1` gave a melting point of 123 to 124 °C.

Regarding `CC(C)(C)OC(=O)N[C@@H](Cc1ccc(O)cc1)C(=O)N[C@H](Cc1ccccc1)C(=O)NCC(=O)O`, the melting point fell in the range of 105 to 110 °C.

Turning to `O=C(Nc1cc(Cl)ccc1OCc1nnn[nH]1)c1cc(-c2ccc(Cl)cc2)oc1C(F)(F)F`, the melting point lay within 227 to 236 °C.

`CCCN1C(=O)C2CC(c3ccc([N+](=O)[O-])cc3)(C2)C1=O` gave a melting point of 149 to 151 °C.

Turning to `O=c1ccoc(C(O)c2ccc3ccccc3c2)c1OCc1ccccc1` (stereo unspecified), the melting point lay within 159 to 160 °C.

As to `CN(C)C(=O)c1ccc([N+](=O)[O-])cc1S(=O)(=O)Cl`, the melting point fell in the range of 129 to 131 °C.

Consider `CC(c1c(F)ccc(F)c1Cl)N1CCNc2ncc(I)cc21` (stereo unspecified), for which the melting point was determined as 166 °C.

`COc1ccc(-c2ccc(C(=O)O)cn2)cc1`: the melting point was in the range of 252 to 253 °C.

On to `CC(C)=CC(=O)NCC1Cc2ccc(-c3ccc(=O)[nH]n3)cc2C1` (stereo unspecified), for which the melting point was 204 to 205 °C.

For the molecule `COP(=O)(OC)C1OC(=O)c2ccccc21` (stereo unspecified), the melting point fell in the range of 95 to 96.5 °C.

Consider `COc1ccc(-c2cc(=O)c3c(O)cc(O)cc3o2)cc1OCC(O)CO` (stereo unspecified), for which the melting point was 215 to 218 °C.

The molecule `N#CCCNC(=O)c1n[nH]cc1NC(=O)c1cccc(C(F)(F)F)c1` returned a melting point of 188 to 190 °C.

In turn, `CC(c1ccccc1)C(Br)C(=O)c1ccccc1` (stereo unspecified) returned a melting point of 69 to 71 °C.

Take `CCCc1ccnc(C(N)=O)c1N`: the melting point fell in the range of 139 to 141 °C.

In turn, `CC(C)C[C@@H](C(=O)O)N(C)C(=O)OCc1ccccc1` came in with a melting point of 69 to 71 °C.

`CCCCOC(=O)CS(=O)(=O)C=C1SC=CS1`: the melting point lay within 87 to 88 °C.

Regarding `CCCCc1ccc(NC(=O)NOCc2ccccc2)cc1`, the melting point is 90.6 to 91.4 °C.

Consider `COc1cc2c(cc1OC)CN(CCc1ccc(NC(=O)c3cccc4c(=O)c5cccc(F)c5[nH]c34)c(C)c1)CC2`, for which the melting point was found to be 210 °C.

`CC(C)(C)OC(=O)NC1(CCN2C(=O)c3ccccc3C2=O)CC1` registered a melting point of 125 to 127 °C.

In turn, `CCC1SCCCN1C(=S)Nc1cccc(Br)c1` (stereo unspecified) yielded a melting point of 77 to 79 °C.

As for `O=C(NO)c1ccc2c(c1)CN(C(=O)c1ccc3ccccc3n1)C2`, the melting point fell in the range of 162 to 166 °C.

The molecule `O=c1oc(-c2c(F)cccc2Cl)nn1-c1ccccc1C(F)(F)F` registered a melting point of 109 to 110 °C.

On to `CSc1sc(-c2ccccn2)c2c1-c1oncc1C(C)(C)C2`, for which the melting point lay in the range of 153 to 155 °C.

On to `O=C(O)c1c[nH]c2cc(Cl)c([N+](=O)[O-])cc2c1=O`, for which the melting point was in the range of 294 to 297 °C.

The molecule `CC12CCC3C(CCC4=C(N)C(=O)CCC43C)C1CCC2=O` (stereo unspecified) showed a melting point of 186 to 188 °C.

Consider `COc1cc(Cl)c2nc(NN)nc(N)c2c1OC`, for which the melting point was in the range of 168 to 169 °C.

For the molecule `CN1CC[C@@H](c2c(O)cc(O)c3c(=O)cc(-c4cccc(F)c4Br)oc23)[C@@H]1CO`, the melting point fell in the range of 237 to 239 °C.

In turn, `O=C(O)c1cccc2c(=O)c3cc([N+](=O)[O-])ccc3[nH]c12` had a melting point of 375 °C.

`CC(C)(C)c1cc(-c2csc(SCC(=O)O)n2)cc(C(C)(C)C)c1O` yielded a melting point of 158 to 159 °C.

`COC(=O)c1ccc2c(c1)C(=O)N(c1ccccc1)C2=O` gave a melting point of 200 to 207 °C.

Turning to `Cc1[nH]n(C2CCCC2)c2nc(-c3cc[nH]c(=O)c3)nc(=O)c1-2`, the melting point is > 300 °C.

The molecule `CC(C(N)=O)c1ccc2c(c1Cl)C(=O)Cc1ccccc1S2` (stereo unspecified) had a melting point of 180 to 181 °C.

Regarding `CCC1Cc2c(C)c(O)c(C)c(C)c2O1` (racemic), the melting point lay in the range of 73 to 75 °C.
